Laboratory results taken from BindingDB's records for patent US12071425 (Genentech, 2024).

Biological target: T1, Serine/threonine-protein kinase/endoribonuclease IRE1 [D688N] (Homo sapiens, UniProt O75460, D688N)
T1 construct: gene ERN1
Assay: IRE1α TR-FRET Competition Binding Assay
Procedure: To determine the affinity of compound binding to the kinase domain of IRE1 alpha, a Time Resolved Fluorescence Resonance Energy Transfer (TR-FRET) competition assay was used. A His-tagged IRE1 alpha kinase dead construct containing the kinase and RNase domains (KR, AA G547-L977, D688N) was expressed in Sf9 insect cells. The purified protein (final concentration 0.006 μM micromolar) was pre-incubated with anti-His Europium labeled antibody (Life Technologies PV5596, final concentration 0.002 μM micromolar) for one hour at 4° C. in 1X TR-FRET Assay Buffer (50 mM HEPES, pH 7.5.10 mM MgCl2, 0.083 mM Brij 35, 1 mM DTT, and 0.1% bovine gamma globulin) prior to addition to test compounds. A fluorescent labeled probe based on an ATP competitive inhibitor (Kinase Tracer 236, Life Technologies PV5592) is added to a final concentration of 0.1 μM (micromolar). Reactions were carried out for one hour at room temperature in a final volume of 20 μL (microliter) in 384 well white ProxiPlates (Perkin Elmer 6008289). Binding of the tracer to the IRE1 protein alpha was detected in an Envision instrument (PerkinElmer) equipped with a TRF laser option and a LANCE/Delfia Dual/Bias D400/D630 mirror (Ex 347 nm, 1st Em 665 nm, 2nd Em 615 nm).

T1 sequence (O75460 19-977 D688N limits assumed): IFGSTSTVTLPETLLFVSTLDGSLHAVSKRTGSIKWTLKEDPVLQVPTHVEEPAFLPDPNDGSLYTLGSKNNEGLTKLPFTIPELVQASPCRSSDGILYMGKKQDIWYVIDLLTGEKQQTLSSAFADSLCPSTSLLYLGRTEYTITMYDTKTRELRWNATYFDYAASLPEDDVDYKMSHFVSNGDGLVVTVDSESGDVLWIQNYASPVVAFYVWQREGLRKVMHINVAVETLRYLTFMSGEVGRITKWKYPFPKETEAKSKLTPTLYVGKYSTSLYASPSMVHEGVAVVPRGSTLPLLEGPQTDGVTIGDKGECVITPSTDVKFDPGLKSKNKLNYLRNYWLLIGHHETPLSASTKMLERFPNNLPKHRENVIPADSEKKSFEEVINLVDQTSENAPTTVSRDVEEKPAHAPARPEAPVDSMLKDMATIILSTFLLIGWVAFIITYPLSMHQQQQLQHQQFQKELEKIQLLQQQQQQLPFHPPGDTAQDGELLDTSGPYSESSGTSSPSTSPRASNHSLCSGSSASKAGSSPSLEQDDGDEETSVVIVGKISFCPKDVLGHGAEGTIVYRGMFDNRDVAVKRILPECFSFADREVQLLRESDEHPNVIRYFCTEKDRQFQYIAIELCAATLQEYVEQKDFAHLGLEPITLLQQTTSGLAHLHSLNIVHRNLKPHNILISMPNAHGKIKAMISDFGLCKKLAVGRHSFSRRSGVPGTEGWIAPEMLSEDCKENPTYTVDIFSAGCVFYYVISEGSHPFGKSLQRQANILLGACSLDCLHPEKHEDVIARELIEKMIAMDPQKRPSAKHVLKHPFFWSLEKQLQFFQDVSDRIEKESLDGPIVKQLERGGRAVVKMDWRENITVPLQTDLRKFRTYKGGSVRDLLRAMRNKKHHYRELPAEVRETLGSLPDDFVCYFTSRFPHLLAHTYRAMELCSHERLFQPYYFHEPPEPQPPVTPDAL

IC50 [nM] | Compound
4.8 | O=S(=O)(Nc1ccc(Oc2ncccc2-c2ccnc(N[C@H]3CCCNC3)n2)c(F)c1F)c1ccccc1Cl [US12071425, Compound 227]
2.6 | O=S(=O)(CC(F)(F)F)Nc1c(F)cc(Oc2ncccc2-c2ccnc(N[C@@H]3CNC[C@@H](F)C3)n2)c(F)c1F [US12071425, Compound 260]
2 | CN(C)[C@H]1CC[C@H](Nc2nccc(-c3cccnc3Oc3cc(F)c(NS(=O)(=O)CCC(F)(F)F)c(F)c3F)n2)CC1 [US12071425, Compound 382]
